Experimental data taken from US20110082114A1, “Methods of Treating Aneurysmal Dilatation, Blood Vessel Wall Weakness and Specifically Abdominal Aortic and Thoracic Aneurysm Using Matrix Metalloprotease-2 Inhibitors” (SYMPHONY EVOLUTION, INC., priority 2009, published 2011).

Key:
[1] = test system: C57/B16 mice, elastase-perfused abdominal aorta; experiment: Elastase-perfusion mouse model of AAA, aortic diameter; type: in vivo; conditions: for mean % ΔAD (increase in aortic diameter at 2 weeks): daily gavage in Cremophor, Mean±SE
Description: All mice used in the experiment were commercially obtained C57/B16 inbred strain mice. Throughout the experimental course, mice were allowed free access to food and water. Animals were housed in a controlled animal facility, and all mouse care and treatment occurred under approved protocols.
A total of 89 C57/B16 mice were subjected to transient perfusion of the abdominal aorta according to a protocol known in the art. Briefly, after sedation and preparation, the aorta was approached through a midline laparotomy. The infrarenal aorta was dissected and the diameter was measured under physiologic blood pressure. A segment of infrarenal aorta was isolated and a 5 minute perfusion of this segment was performed through an arteriotomy at 100 mmHg with a solution containing type I porcine pancreatic elastase (PPE 0.16 U/mL). All of the experiments were performed with a single PPE preparation derived from the same commercial source and lot.
Following aortic perfusion the arteriotomy was repaired, the laparotomy was closed and the animal was allowed to completely recover before returning to its standard housing.
Following aortic perfusion, animals were placed into one of 5 treatment groups. […] Three different doses of the agent were used, 50 mg/kg/day (n=17), 125 mg/kg/day (n=17), and 250 mg/kg/day (n=18). There were two mice in each group which died following aortic perfusion, and all others were available for analysis. Control animals (n=18) were similarly treated with daily gavage of the Cremophor diluent only. Of these mice, 16 survived the two weeks following aortic perfusion and underwent final aortic measurements and harvest. […] In this group, 4 mice died prior to the two week harvest, and all others were used in the analysis of aneurysm growth.
Two weeks following elastase perfusion, the mice were again anesthetized; the laparotomy incision was reopened and the final aortic diameter was measured in vivo prior to sacrifice. The animals were humanely sacrificed, and circulating blood and the entire perfused segment of aorta was harvested for RNA extraction, protein extraction or histology.

[2] = test system: C57/B16 mice, elastase-perfused abdominal aorta; experiment: Elastase-perfusion mouse model of AAA, aortic histology; type: in vivo; conditions: 50, 125, 250 mg/kg/day
Description: The aortas from several mice from each experimental group were perfusion fixed with 10% neutral-buffered formalin, removed, and placed in additional formalin for a minimum of 24 hours prior to processing for paraffin embedding. Following paraffin embedding, aortic specimens were cut into 5 μm sections and mounted on glass slides. Each specimen was stained with hematoxylin and eosin to evaluate inflammatory cell infiltration and Accustain® Elastic Stain kit to assess the degree of elastin degradation. Photomicrographs of serial sections were obtained using an Olympus BX60 light microscope equipped with CV12 video capture camera.
Representative aortas from each group were fixed in formalin following aortic harvest and processed into paraffin blocks. During harvest only the maximally dilated segment of the aorta was taken, and serial sections of the block were made to assure that the most dilated segment of aorta was imaged. These maximally dilated segments were stained with Hematoxylin and Eosin stains as well as an elastin highlighting stain (Verhoff-Von Giesen [VVG]).

mADAM-10 or hADAM-10 = target: T1, mADAM-10 or hADAM-10 (UniProt O14672); experiment: ADAM-10 enzyme assay (fluorogenic peptide cleavage); type: biochemical;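 note: fluorescence from cleavage of a quenched 10-residue DABCYL/EDANS peptide by 5 nM enzyme in HEPES pH 8.0 buffer, 16 hr at room temperature, compounds serially diluted 100 µM to 0.5 nM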
T1 sequence (O14672 1-748): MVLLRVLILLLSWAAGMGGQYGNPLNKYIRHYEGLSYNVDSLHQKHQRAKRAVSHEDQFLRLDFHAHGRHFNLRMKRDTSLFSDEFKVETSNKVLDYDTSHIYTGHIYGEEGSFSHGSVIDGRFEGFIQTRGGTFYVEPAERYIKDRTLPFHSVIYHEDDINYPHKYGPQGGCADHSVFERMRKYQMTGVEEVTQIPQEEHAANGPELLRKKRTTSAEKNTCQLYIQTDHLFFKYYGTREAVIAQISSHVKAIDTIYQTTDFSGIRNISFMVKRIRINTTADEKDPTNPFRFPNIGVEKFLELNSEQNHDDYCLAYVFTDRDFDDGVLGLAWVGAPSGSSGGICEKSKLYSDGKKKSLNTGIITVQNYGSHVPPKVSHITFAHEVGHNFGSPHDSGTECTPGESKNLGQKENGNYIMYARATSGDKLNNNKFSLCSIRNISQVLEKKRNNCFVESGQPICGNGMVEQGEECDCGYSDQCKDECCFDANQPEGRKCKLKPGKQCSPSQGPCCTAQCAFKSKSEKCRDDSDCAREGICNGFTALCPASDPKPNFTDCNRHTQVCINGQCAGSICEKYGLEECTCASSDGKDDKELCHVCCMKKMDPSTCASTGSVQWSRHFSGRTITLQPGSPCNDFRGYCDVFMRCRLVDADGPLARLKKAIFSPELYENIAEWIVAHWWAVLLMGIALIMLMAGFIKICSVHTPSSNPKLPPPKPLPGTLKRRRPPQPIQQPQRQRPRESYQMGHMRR
Description: mADAM-10 or hADAM-10 activity was measured as the ability to cleave a 10-residue peptide (DABCYL-Leu-Leu-Ala-Gln-Lys-*-Leu-Arg-Ser-Ser-Arg-EDANS). […] Enzyme was diluted to a final active concentration of 5 nM in Buffer A (50 mM HEPES 8.0, 100 mM NaCl, 1 mM CaCl2 and 0.01% NP-40). Serial dilutions for compounds were performed ranging from 100 μM to 0.5 nM using a Beckman Biomek 2000 in polypropylene plates (Greiner). […] This reaction was incubated for 16 hr at RT and fluorescence was read using identical conditions.

With `COCCOC(=O)N1CCN(S(=O)(=O)c2cc(F)c(Oc3ccc(Cl)cc3)c(F)c2)[C@@H](C(=O)NO)C1` [Entry 15] the “mean % ΔAD (increase in aortic diameter at 2 weeks)” value ([1]; 125 mg/kg/day) was 129.3±5.1%, the “animals which did not develop aneurysms” value ([1]; 250 mg/kg/day, daily gavage) was 12% and the “mean % ΔAD (increase in aortic diameter at 2 weeks)” value ([1]; 250 mg/kg/day) was 119.2±14.1%. The “aortic diameters at harvest compared with control animals” value ([1]; all doses (50, 125, 250 mg/kg/day)) was “significantly smaller than control animals”, the “animals that developed maximal diameters greater than 100%” value ([1]; low (50 mg/kg/day) and intermediate (125 mg/kg/day) dose groups) was “All animals” and the “mean % ΔAD (increase in aortic diameter at 2 weeks)” value ([1]; lowest dose (50 mg/kg/day)) was 140.4±3.2%. The “degree of elastin damage and inflammatory cell inflammation versus dose” value [2] was “inversely correlated with the dose of the agent administered”.
With `O=C(NO)[C@H]1CN(S(=O)(=O)Cc2cc(Cl)cc(Cl)c2)CCN1S(=O)(=O)c1cc(F)c(Oc2ccc(Cl)cc2)c(F)c1` [Entry 61] the IC50 (mADAM-10 or hADAM-10) was 50 to 1000 nM.
Work on `C=CCN1CCN(S(=O)(=O)c2cc(F)c(Oc3ccc(Cl)cc3)c(F)c2)[C@@H](C(=O)NO)C1` [Entry 62] yielded an IC50 (mADAM-10 or hADAM-10) of 50 to 1000 nM.
`O=C(O)CN1CCN(S(=O)(=O)c2cc(F)c(Oc3ccc(Cl)cc3)c(F)c2)[C@@H](C(=O)NO)C1` [Entry 63] was tested, and the IC50 (mADAM-10 or hADAM-10) was 50 to 1000 nM.
For `COCCOC(=O)N1CCN(S(=O)(=O)c2ccc(Oc3ccc4c(c3)CCCC4)nc2)[C@@H](C(=O)NO)C1` [Entry 64], the IC50 (mADAM-10 or hADAM-10) was under 50 nM.
Molecule `COCCOC(=O)N1CCN(S(=O)(=O)c2ccc(Oc3ccc(F)cc3)nc2)[C@@H](C(=O)NO)C1` [Entry 65] has an IC50 (mADAM-10 or hADAM-10) of 50 to 1000 nM.
Work on `COCCOC(=O)N1CCN(S(=O)(=O)c2ccc(-c3cccc(F)c3)nc2)[C@@H](C(=O)NO)C1` [Entry 66] yielded an IC50 (mADAM-10 or hADAM-10) of under 50 nM.
For `C[C@H]1c2cccc(O)c2C(=O)C2=C(O)[C@]3(O)C(=O)C(C(N)=O)=C(O)[C@@H](N(C)C)[C@@H]3[C@@H](O)[C@@H]21` [doxycycline, reference compound], the “animals not reaching the threshold designated for aneurysms (% ΔAD greater than 100%)” value ([1]; doxycycline in drinking water, 100 mg/kg/day) was 13% and the “mean % ΔAD (percentage increase in aortic diameter at 2 weeks compared to baseline)” value ([1]; doxycycline in drinking water, 100 mg/kg/day, n=15, Mean±SE) was 112.2±2.0%.
